Assay results from patent US10132810B2, “Method for assessing and predicting efficacy of breast cancer treatment with a long-acting topoisomerase I inhibitor” (priority 2012, dated 2018).
Where two headings read alike, the source gives them in different places.

Key:
serum CA27.29 = tested on: serum CA27.29
Method: Medical history was taken at screening and on day 1 of each cycle. Physical exam was performed and serum CA27.29, complete blood count with differential, and serum chemistry were analyzed at screening, on day 1 of each cycle, and at end of treatment. Coagulation parameters were analyzed at screening and on day 1 of each cycle. […] Patients were contacted approximately every 3 months after the end-of-treatment visit to assess progression (in the absence of progression on study), survival, receipt of subsequent anti-cancer therapy, and resolution of toxicity.
Secondary endpoints were PFS, overall survival (OS), 6-month and 1-year survival, and safety. Exploratory endpoints included change from baseline in CA27.29, UGT1A1 and ABCC2 polymorphism for correlation with select toxicities.
The analysis dataset utilized consisted of 45 patients having at least two CA27.29 measurements (pre- and post-first dose).
Levels of CA27.29 were also evaluated for correlation with tumor size over the course of treatment.

[1] = tested on: patients with previously treated metastatic breast cancer; assay: Efficacy of two dosing schedules in patients with previously treated metastatic breast cancer (RECIST response, PFS, OS); type: in vivo, human
Method: Seventy patients were enrolled in the trial (n=35 per arm). […] Patients received treatment until disease progression or unacceptable toxicity. The drug dosage was dose-reduced by 25 mg/m^2 for grade 3-4 hematologic toxicity, grade 3-4 diarrhea, and other grade 2-4 non-hematologic toxicities (other than alopecia, anorexia, asthenia, and untreated nausea/vomiting). […] Medical history was taken at screening and on day 1 of each cycle. […] Coagulation parameters were analyzed at screening and on day 1 of each cycle. […] Patients were contacted approximately every 3 months after the end-of-treatment visit to assess progression (in the absence of progression on study), survival, receipt of subsequent anti-cancer therapy, and resolution of toxicity. […] Exploratory endpoints included change from baseline in CA27.29, UGT1A1 and ABCC2 polymorphism for correlation with select toxicities. Three populations for analysis were defined: 1) intent-to-treat (ITT), 2) efficacy evaluable, and 3) safety. The ITT population was the primary population for all efficacy analyses and included all randomized patients. […] The safety population consisted of all patients who received at least one dose or partial dose of chemotherapeutic agent. Summary statistics were used for continuous variables, frequency counts and percentages were used for categorical variables. Ninety-five percent confidence interval were calculated for ORR using the Exact method. Time-to-event variables were analyzed using the Kaplan-Meier method.

Pentaerythritolyl-4-Arm-(PEG-1-Methylene-2 Oxo-Vinylamino Acetate linked-Irinotecan)-20K [4-arm-PEG-gly-irino-20K]
decrease in serum CA27.29 levels over time (serum CA27.29; 145 mg/m^2, both q14d and q21d regimens, FIGS. 1A and 1B): at least twenty five | median change in CA27.29 (serum CA27.29; RECIST PD, FIG. 5): increased | median of the maximum CA27.29 decline (serum CA27.29; RECIST PR and CR, FIG. 5): > 50% | median decline in CA27.29 (serum CA27.29; RECIST SD < 6 months, FIG. 5): negligible | median of the maximum decline in CA27.29 (serum CA27.29; RECIST SD >= 6 months, FIG. 5): 30% | Overall best CA27.29 response (50% or better decline in at least one observation from baseline) (serum CA27.29; Total, 16/45 patients): 36% (16/45) | median PFS (serum CA27.29; patients with <25% reduction (n=4) or elevations (n=13) in CA27.29 by week 6): 6 months | median PFS (serum CA27.29; patients with >=25% reduction in CA27.29 by week 6 (n=12)): 12 months | patients showing CA27.29 elevation from baseline (serum CA27.29; patients with RECIST PD (8/10)): Eighty | patients manifesting declines in CA27.29 (serum CA27.29; patients with RECIST SD >= 6 months (n=5)): All patients | patients showing a decline in CA27.29 (serum CA27.29; patients with SD < 6 months (6/11)): 55% | objective response rate (ORR) ([1]; 145 mg/m^2 iv, administered every 14 days or every 21 days): 28.6% | Overall Survival (OS) ([1]; Total (both schedules)): 10.3 months | Progression Free Survival (PFS) ([1]; Total (both schedules)): 4.6 months | Overall Response Rate (ORR) ([1]; Total (both schedules), N = 66): 29% (N = 66) | Overall Survival (OS) ([1]; q21d schedule): 13.1 months | Progression Free Survival (PFS) ([1]; q21d schedule): 5.3 months
